Laboratory results taken from patent publication US20260174875A1 (Novo Nordisk A/S, priority 2023, published 2026).
Read-outs that look alike come from different tables or passages of the source. Numbered stars: 1 amine (or outer) side, 2 acyl side, 3 side chain; on linkers, the order of the positions; unused ones are H or OH. Square brackets hold non-standard residues; d marks the D form. Side chains are listed from the residue outwards. * marks the point of attachment. Chem. 22 = C20 diacid gamma-Glu, O=C(O)CCCCCCCCCCCCCCCCCCC(=O)N[C@@H](CCC(=O)*)C(=O)O; C20 diacid = O=C(O)CCCCCCCCCCCCCCCCCCC(=O)*; C18 diacid = O=C(O)CCCCCCCCCCCCCCCCC(=O)*; C16 diacid = O=C(O)CCCCCCCCCCCCCCC(=O)*; γGlu = O=C(O)[C@H](CCC(=O)[*:2])N[*:1]; Chem. 28 = not defined here; Chem. 29 = not defined here; AEEA = NCCOCCOCC(=O)O; Aib = CC(C)(N)C(=O)O

T1: human GIP receptor (hGIPR) (Homo sapiens, UniProt P48546)
T1 construct: expressed in transfected cells
T1 sequence (P48546 22-466): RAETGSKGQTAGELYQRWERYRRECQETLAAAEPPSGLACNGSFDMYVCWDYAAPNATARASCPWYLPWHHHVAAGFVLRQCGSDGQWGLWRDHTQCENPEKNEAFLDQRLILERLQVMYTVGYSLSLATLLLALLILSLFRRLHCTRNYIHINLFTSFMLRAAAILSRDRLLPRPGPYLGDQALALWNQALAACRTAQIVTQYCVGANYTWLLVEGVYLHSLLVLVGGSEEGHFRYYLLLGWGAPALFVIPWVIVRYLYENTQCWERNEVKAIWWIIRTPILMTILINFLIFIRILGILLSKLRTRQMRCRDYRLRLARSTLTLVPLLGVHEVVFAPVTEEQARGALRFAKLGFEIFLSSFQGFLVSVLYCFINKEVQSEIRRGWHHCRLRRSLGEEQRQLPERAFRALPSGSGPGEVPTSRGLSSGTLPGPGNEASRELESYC

T2: human amylin-3(a) receptor (human, UniProt P30988 25-474; O60896 24-148)
T2 sequence (looked up) 1: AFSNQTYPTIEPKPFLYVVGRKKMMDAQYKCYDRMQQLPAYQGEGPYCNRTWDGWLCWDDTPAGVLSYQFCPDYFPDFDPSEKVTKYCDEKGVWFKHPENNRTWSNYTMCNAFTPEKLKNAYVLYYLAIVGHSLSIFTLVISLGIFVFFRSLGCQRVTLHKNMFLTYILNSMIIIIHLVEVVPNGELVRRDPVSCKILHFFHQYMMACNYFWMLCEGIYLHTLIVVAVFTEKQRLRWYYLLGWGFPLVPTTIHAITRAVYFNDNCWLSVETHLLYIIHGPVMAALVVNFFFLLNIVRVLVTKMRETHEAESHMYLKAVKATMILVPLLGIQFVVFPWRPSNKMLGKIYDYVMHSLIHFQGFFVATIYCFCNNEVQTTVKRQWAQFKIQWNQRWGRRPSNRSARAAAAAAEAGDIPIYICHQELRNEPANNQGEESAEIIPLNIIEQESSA
T2 sequence (looked up) 2: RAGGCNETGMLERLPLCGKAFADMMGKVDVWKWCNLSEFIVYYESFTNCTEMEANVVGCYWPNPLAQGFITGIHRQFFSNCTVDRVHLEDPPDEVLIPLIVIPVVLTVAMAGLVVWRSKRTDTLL

T3: human GIP receptor (human, UniProt P48546 22-466)
T3 sequence (looked up): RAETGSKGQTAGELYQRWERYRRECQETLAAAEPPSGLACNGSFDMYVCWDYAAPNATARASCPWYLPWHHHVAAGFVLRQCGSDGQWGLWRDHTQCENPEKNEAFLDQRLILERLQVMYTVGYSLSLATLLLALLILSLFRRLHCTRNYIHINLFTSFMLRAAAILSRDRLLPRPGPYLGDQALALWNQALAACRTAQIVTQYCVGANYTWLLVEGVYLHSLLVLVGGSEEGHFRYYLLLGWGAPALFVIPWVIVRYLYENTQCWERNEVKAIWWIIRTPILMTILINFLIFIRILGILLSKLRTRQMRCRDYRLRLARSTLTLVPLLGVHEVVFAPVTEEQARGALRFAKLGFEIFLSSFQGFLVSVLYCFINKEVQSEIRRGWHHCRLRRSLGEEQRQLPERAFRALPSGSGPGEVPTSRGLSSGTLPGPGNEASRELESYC

B1: Compound 40 (peptide)
peptide: Y[Aib]EGTFTSDYSILLEEQAAREFIEWLLAGGPSK(Chem. 28)GGGGEGGGEGEASHLSTAQTQRLSAELHELATLPRTETGSGSP-NH2
modifications: reading uncertain; also: VARIANT 50 Aib (position 50 is T), mods: Aib at 2
B2: Compound 13 (peptide)
peptide: Y[Aib]EGTFTSDYSILLEEQAAREFIEWLLAGGPSK([AEEA-AEEA-γGlu-C18 diacid])GAPPPSGGGGASELSTAALGRLSAELHRLATLPRTETGSGSP-NH2
B3: Compound 44 (peptide)
peptide: H[Aib]HGTFTSDYSILLEEQAAREFIEWLLAGGPSK(Chem. 28)GALAQTLGTNEASELSTAALGRLSAELHRLATLPRTETGSGSP-NH2
modifications: reading uncertain
B4: Compound 42 (peptide)
peptide: Y[Aib]EGTFTSDYSILLEEQAAREFIEWLLAGGPSSK(Chem. 22)APPPSGGGEASELSTAALGRLSAELHRLATLPRTETGSGSP-NH2
B5: Compound 66 (peptide)
peptide: H[Aib]HGTFTSDYSILLEEQAAREFIEWLLAGGPSK([AEEA-AEEA-γGlu-C18 diacid])GEASQLSTAALGRLSAELHHLATLPRTETGSGSP-NH2
B6: Compound 33 (peptide)
peptide: Y[Aib]EGTFTSDYSILLEEQAAREFIEWLLAGGPSK(Chem. 28)GAPPEASELSTAALGRLSAELHELATLPRTETGSGSP-NH2
modifications: reading uncertain
B7: Compound 41 (peptide)
peptide: Y[Aib]EGTFTSDYSILLEEQAAREFIEWLLAGGPSK(Chem. 22)GAPPPSGGGEASELSTAALGRLSAELHRLADLPRTETGSGSP-NH2
B8: Compound 35 (peptide)
peptide: Y[Aib]EGTFTSDYSILLEEQAAREFIEWLLAGGPSK(Chem. 28)GEASHLSTAQTARLSAELHELATLPRTETGSGSP-NH2
modifications: reading uncertain
B9: Compound 19 (peptide)
peptide: Y[Aib]EGTFTSDYSILLEEQAAREFIEWLLAGGPSK(Chem. 28)GEASELSTAALGRLSAELHRLATLPRTETGSGSP-NH2
modifications: reading uncertain
B10: Compound 54 (peptide)
peptide: Y[Aib]EGTFTSDYSILLEEQAAREFIEWLLAGGPSSGAGQAPGQAPGASK(Chem. 28)LSTAQTQRLSAELHRLATLPRTETGSGSP-NH2
modifications: reading uncertain
B11: Compound 34 (peptide)
peptide: Y[Aib]EGTFTSDYSILLEEQAAREFIEWLLAGGPSK(Chem. 28)GEASHLSTAQTQRLSAELHELATLPRTETGSGSP-NH2
modifications: reading uncertain
B12: Compound 18 (peptide)
peptide: Y[Aib]EGTFTSDYSILLEEQAAREFIEWLLAGGPSK(Chem. 29)GEASELSTAALGRLSAELHRLATLPRTETGSGSP-NH2
modifications: reading uncertain
B13: Compound 46 (peptide)
peptide: H[Aib]HGTFTSDYSILLEEQAAREFIEWLLAGGPSK(Chem. 28)GAGQAPGQAPGASHLSTAALGRLSAELHRLATLPRTETGSGSP-NH2
modifications: reading uncertain

How the values were obtained:
[1] = molecular target: T4, human amylin receptor (hAMYR3) (Homo sapiens, UniProt O60896+P30988); assay: Amylin receptor assay, method A (CRE-luciferase reporter, BHK cells); type: cell-based
T4 construct: host or cells: BHK cells (Hollex-1 line expressing hCTR(a) and CRE-Luc), further transfected with human RAMP3

[2] = molecular target: T1, human GIP receptor (hGIPR); assay: GIP receptor assay, method A (CRE-luciferase reporter, BHK cells); type: cell-based
Procedure, shortened: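 BHK cells co-expressing hGIPR and a CRE-luciferase reporter were stimulated for 3 h at 37 °C with a 7-point, 10-fold compound titration in duplicate. Buffer was DMEM, 10 mM HEPES, 1% ovalbumin, 0.1% Pluronic F-68, without HSA or with 1% (w/v) HSA. EC50 [pM] came from four-parameter logistic fits of luminescence.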

[3] = molecular target: T5, human GLP-1 receptor (hGLP-1R) (Homo sapiens, UniProt P43220); assay: GLP-1 receptor assay, method A (CRE-luciferase reporter, BHK cells); type: cell-based
T5 construct: expressed in transfected cells
Procedure, shortened: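 In this CRE-luciferase reporter assay, the human receptor was expressed in BHK cells, and cAMP signalling was followed after a 3 h stimulation at 37° C. The buffer contained 1% (w/v) ovalbumin, and testing was done with and without 1% (w/v) human serum albumin.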

human GLP-1 receptor = human GLP-1 receptor (human, UniProt P43220 24-463); assay: cell-based or functional assay
[4] = molecular target: T2, human amylin-3(a) receptor; assay: cell-based or functional assay
human GIP receptor = molecular target: T3, human GIP receptor; assay: cell-based or functional assay
[5] = hAMYR3 Potency, 1% HSA, EC50, method A, in the presence of 1% HSA
[6] = method A, absence of HSA, read-out: hAMYR3 Potency, no HSA, EC50
[7] = hGIPR Potency, 1% HSA, EC50, method A, in the presence of 1% HSA
[8] = method A, absence of HSA, read-out: hGIPR Potency, no HSA, EC50
[9] = hGLP-1R Potency, 1% HSA, EC50, method A, in the presence of 1% HSA
[10] = method A, absence of HSA, read-out: hGLP-1R Potency, no HSA, EC50

T5 sequence (P43220 24-463): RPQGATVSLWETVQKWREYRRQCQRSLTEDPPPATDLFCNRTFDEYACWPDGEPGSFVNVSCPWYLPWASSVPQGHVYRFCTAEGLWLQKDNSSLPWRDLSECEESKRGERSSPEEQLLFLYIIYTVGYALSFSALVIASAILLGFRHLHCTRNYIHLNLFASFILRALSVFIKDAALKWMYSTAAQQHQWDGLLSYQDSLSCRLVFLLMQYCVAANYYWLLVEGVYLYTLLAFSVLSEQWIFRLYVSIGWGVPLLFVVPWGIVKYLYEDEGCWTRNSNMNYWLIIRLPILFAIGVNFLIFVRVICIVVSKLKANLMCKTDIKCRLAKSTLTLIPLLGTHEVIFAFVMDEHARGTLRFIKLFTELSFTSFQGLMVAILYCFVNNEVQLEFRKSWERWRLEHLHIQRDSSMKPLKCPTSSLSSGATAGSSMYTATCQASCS

Molecule | EC50 [1, 5] [pM] | EC50 [1, 6] [pM] | EC50 [2, 7] [pM] | EC50 [2, 8] [pM] | EC50 [3, 9] [nM] | EC50 [3, 10] [nM] | hGLP-1R Potency, no HSA, EC50 [pM] (human GLP-1 receptor) | hAMYR3 Potency, no HSA, EC50 [pM] [4] [pM] | hGIPR Potency, no HSA, EC50 [pM] (human GIP receptor)
Y[Aib]EGTFTSDYSILLEEQAAREFIEWLLAGGPSSGALAQTLAQTLASHLSTAQTQRLSAELHK([AEEA-AEEA-γGlu-C16 diacid])LATLPRTETGSGSP-NH2 [Compound 59] | 24.2 | 3.85 | 27.2 | 7.72 | 0.0397 | 0.0506 | – | – | –
Y[Aib]EGTFTSDYSILLEEQAAREFIEWLLAGGPSSGALAQTLAQTLASHLSTAQTQRLSAELHK([AEEA-AEEA-γGlu-C18 diacid])LATLPRTETGSGSP-NH2 [Compound 48] | 78.5 | 3.2 | 54 | 7.02 | 0.105 | 0.0648 | – | – | –
Y[Aib]EGTFTSDYSILLEEQAAREFIEWLLAGGPSSGALAQTLAQTLASHLSTAQTQRLSAELHK([AEEA-AEEA-γGlu-C20 diacid])LATLPRTETGSGSP-NH2 [Compound 60] | 191 | 3.85 | 28.3 | 6.06 | 0.173 | 0.0944 | – | – | –
Y[Aib]EGTFTSDYSILLEEQAAREFIEWLLAGGPSSGALQAPGQAPLASHLSTAQTARLSAELHK([AEEA-AEEA-γGlu-C18 diacid])LATLPRTETGSGSP-NH2 [Compound 105] | 113 | 2.88 | 12.5 | 3.08 | 0.0489 | 0.0126 | – | – | –
Y[Aib]EGTFTSDYSILLEEQAAREFIEWLLAGGPSSGAPPPSGGGEASHLSTAQTQRLSAELHK([AEEA-AEEA-γGlu-C18 diacid])LATLPRTETGSGSP-NH2 [Compound 49] | 106 | 1.85 | 16.7 | 4.36 | 0.11 | 0.0333 | – | – | –
Y[Aib]EGTFTSDYSILLEEQAAREFIEWLLAGGPSSGEASHLSTAQTQRLSAELHRLATLPK([AEEA-AEEA-γGlu-C18 diacid])TETGSGSP-NH2 [Compound 81] | 188 | 4.07 | 15.8 | 3.31 | 0.0514 | 0.016 | – | – | –
Y[Aib]EGTFTSDYSILLEEQAAREFIEWLLAGGPSSK([AEEA-AEEA-γGlu-C18 diacid])APPPSGGGEASELSTAALGRLSAELHRLATLPRTETGSGSP-NH2 [Compound 31] | – | 2.69 | – | 4.73 | – | 0.0478 | – | – | –
Y[Aib]EGTFTSDYSILLEEQAAREFIEWLLAGGPSSK([γGlu-C20 diacid])APPPSGGGEASELSTAALGRLSAELHRLATLPRTETGSGSP-NH2 [Compound 42] | – | 3.42 | – | 8.01 | – | 0.0613 | – | – | –
B1 | – | – | – | – | – | – | 23.3 | 5.49 | 1.63
B2 | – | – | – | – | – | – | 37.9 | 2.26 | 2.4
B3 | – | – | – | – | – | – | 3.68 | 3.8 | 6.3
B4 | – | – | – | – | – | – | 61.3 | 3.42 | 8.01
B5 | – | – | – | – | – | – | 5.25 | 2.32 | 2.39
B6 | – | – | – | – | – | – | 32.1 | 10.3 | 3.11
B7 | – | – | – | – | – | – | 40.8 | 6.72 | 5.02
B8 | – | – | – | – | – | – | 23.3 | 4.21 | 1.97
B9 | – | – | – | – | – | – | 57.9 | 4.24 | 9.44
B10 | – | – | – | – | – | – | 28.8 | 3.02 | 5.56
B11 | – | – | – | – | – | – | 21.7 | 6.81 | 1.7
B12 | – | – | – | – | – | – | 52.8 | 3.93 | 7.25
B13 | – | – | – | – | – | – | 4.59 | 4.41 | 5.42
